Laboratory results: publication PMC8648984 (Angewandte Chemie (International ed. in English), 2021)
Converted amounts (≈) assume the structure as drawn. “And” between values parts separate entries of the source, which are not always exact repeats. Equal entries are not always repeated. Where two headings read alike, the source gives them in different places.

What was measured:
[1] = cited from earlier work
[2] = Chemical stability in MV4–11 cell culture media; conditions: for half-life: MV4-11 cell culture media, pH 7.4; for t1/2 MV4–11 cell media: pH 7.4, LCMS over 24 hours
[3] = Chemical stability in HD-MB03 cell culture media; type: physicochemical; conditions: for half-life: HD-MB03 cell culture media, pH 7.7; for t1/2 HD-MB03 cell media: cell media pH 7.7
Caco-2 cell permeability = type: in vitro ADME, human; conditions: human, Caco-2
[4] = Metabolic stability in mouse liver microsomes; type: in vitro ADME
[5] = Metabolic stability in human liver microsomes; type: in vitro ADME
[6] = Stability in phosphate-buffered saline; type: physicochemical
Aqueous solubility = type: physicochemical; conditions: for solubility: aqueous medium (not further specified)
HD-MB03 cells = test: HD-MB03 cell viability; type: cell-based, human; conditions: read-out: HD-MB03 IC50
[7] = tested on: CaCo2 human colon adenocarcinoma cell line; test: Caco-2 cell permeability; type: in vitro ADME
MV4–11 cells = test: MV4–11 cell viability; type: cell-based, human; conditions: read-out: MV4–11 IC50; 3 days incubation, CellTiter-Glo
CRBN = CRBN (Homo sapiens, UniProt Q96SW2); test: CRBN fluorescence polarization assay; type: binding; conditions: for LE (ligand efficiency): from CRBN affinity; for IC50: read-out: CRBN IC50, fluorescence polarization, Cy5-conjugated lenalidomide probe
BRD2 = BRD2 (Homo sapiens, UniProt P25440); test: BRD2 protein degradation in MV4–11 cells; type: cell-based; conditions: 100 nM, 4-hour incubation
Plasma stability = type: in vitro ADME
IKZF1 and CK1α = test: Degradation of classical IMiD neosubstrates; type: cell-based
[8] = Chiral stability in cell media; type: physicochemical; conditions: 24 hours, 37°C
[9] = 3 days incubation, CellTiter-Glo

Sequence of CRBN (Q96SW2 whole entry, species assumed): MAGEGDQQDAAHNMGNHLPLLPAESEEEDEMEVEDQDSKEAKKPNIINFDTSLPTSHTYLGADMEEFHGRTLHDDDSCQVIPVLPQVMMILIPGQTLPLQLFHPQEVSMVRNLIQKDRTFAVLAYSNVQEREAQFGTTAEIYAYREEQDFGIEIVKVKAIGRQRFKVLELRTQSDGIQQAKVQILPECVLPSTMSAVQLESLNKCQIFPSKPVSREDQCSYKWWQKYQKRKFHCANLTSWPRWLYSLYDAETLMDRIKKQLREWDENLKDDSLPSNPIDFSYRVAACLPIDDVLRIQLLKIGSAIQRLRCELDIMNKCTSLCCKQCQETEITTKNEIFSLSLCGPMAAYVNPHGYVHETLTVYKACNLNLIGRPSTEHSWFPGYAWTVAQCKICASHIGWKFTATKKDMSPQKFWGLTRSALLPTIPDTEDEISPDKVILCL
Sequence of BRD2 (P25440 whole entry): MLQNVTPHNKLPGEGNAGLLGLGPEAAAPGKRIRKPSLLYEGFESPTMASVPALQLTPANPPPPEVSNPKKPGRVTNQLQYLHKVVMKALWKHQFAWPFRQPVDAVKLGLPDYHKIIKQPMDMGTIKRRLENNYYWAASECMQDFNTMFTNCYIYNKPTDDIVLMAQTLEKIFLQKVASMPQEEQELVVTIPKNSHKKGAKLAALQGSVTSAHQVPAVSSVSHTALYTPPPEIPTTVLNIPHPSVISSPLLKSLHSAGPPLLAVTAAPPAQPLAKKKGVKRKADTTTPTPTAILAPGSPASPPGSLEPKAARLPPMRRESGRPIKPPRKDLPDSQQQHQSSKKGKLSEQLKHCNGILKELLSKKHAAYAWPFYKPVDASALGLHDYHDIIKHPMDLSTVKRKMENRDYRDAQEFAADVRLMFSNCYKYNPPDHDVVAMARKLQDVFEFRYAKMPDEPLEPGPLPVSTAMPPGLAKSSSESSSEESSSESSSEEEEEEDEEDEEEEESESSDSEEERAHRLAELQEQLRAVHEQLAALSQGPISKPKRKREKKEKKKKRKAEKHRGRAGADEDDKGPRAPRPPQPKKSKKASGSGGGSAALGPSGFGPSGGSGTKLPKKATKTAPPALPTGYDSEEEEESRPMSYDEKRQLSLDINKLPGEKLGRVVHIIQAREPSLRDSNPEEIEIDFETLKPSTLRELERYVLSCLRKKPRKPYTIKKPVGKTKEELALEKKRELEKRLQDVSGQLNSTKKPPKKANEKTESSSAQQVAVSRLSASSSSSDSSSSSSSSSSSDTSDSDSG

half-life [2]	half-life [3]	Papp (Caco-2 cell permeability)	half-life ([4]; liver microsomes)	half-life ([5]; liver microsomes)	half-life [6]	IC50 (CRBN)	SMILES	IC50 (HD-MB03 cells; [9])	Sol. (aqueous solubility) (Aqueous solubility)	t1/2 MV4–11 cell media ([2]; 37°C)	t1/2 HD-MB03 cell media [3]	CaCo2 Papp [7]	t1/2 PBS [6]	IC50 (MV4–11 cells)	other results
3.3 ± 0.4 h	1.8 ± 0.1 h	34.9 ± 1.46 ×10⁻⁶ cm/s	3.99 ± 0.01 h	4.55 ± 0.61 h	5.4 ± 0.2 h		O=C1CCC(N2C(=O)c3ccccc3C2=O)C(=O)N1 (centres unmarked) [1a, thalidomide]								half-life to hydrolysis ([1]; pH 7): 11 h; half-life to hydrolysis ([1]; pH 7.4): 5 h; half-life to hydrolysis ([1]; pH 8): 1.25 h; percentage remaining ([2]; MV4–11 cell media, after 6 hours, 37°C): 20%; level remaining ([2]; MV4–11 cell media, at 24 hours, 37°C): below limits of detection
11.7 h	7.6 ± 0.6 h	4 ± 1.02 ×10⁻⁶ cm/s	> 24 h	> 24 h	33.6 ± 2.5 h		Nc1cccc2c1CN(C1CCC(=O)NC1=O)C2=O (centres unmarked) [1b, lenalidomide]								solubility (Aqueous solubility): 111 ± 6.2 µM (≈ 28.7 µg/mL)
12.2 ± 0.5 h	5.4 ± 0.7 h	36 ± 1.39 ×10⁻⁶ cm/s	7.8 ± 0.69 h	> 24 h	32.5 ± 1 h		Nc1cccc2c1C(=O)N(C1CCC(=O)NC1=O)C2=O (centres unmarked) [1c, pomalidomide]								solubility (Aqueous solubility): 84.6 ± 2.3 µM (≈ 23.1 µg/mL)
							O=C1CCC(c2ccccc2)C(=O)N1 (centres unmarked) [2a, phenyl glutarimide]	> 7000 nM	76.2 ± 0.1 µM	>24 h	20.8 ± 0.8 h	21.55 ± 6.54 ×10⁻⁶ cm/s	>48 h	> 7000 nM	t1/2 mLM ([4]; liver microsomes): >24 h; t1/2 hLM ([5]; liver microsomes): >24 h
						123 ± 66 nM	Nc1ccc(C2CCC(=O)NC2=O)cc1 (centres unmarked) [2c]		148.5 ± 4.7 µM	>24 h	16.4 ± 0.3 h	15.72 ± 0.94 ×10⁻⁶ cm/s	>48 h		t1/2 mLM ([4]; microsomes): 23.19 ± 1.63 h; t1/2 hLM ([5]; microsomes): 15.66 ± 4.78 h; LE (ligand efficiency) (CRBN): 0.64
							Cc1sc2c(c1C)C(c1ccc(Cl)cc1)=N[C@@H](CC(=O)NCCCCNC(=O)COc1cccc3c1C(=O)N(C1CCC(=O)NC1=O)C3=O)c1nnc(C)n1-2 (some centres unmarked) [4a]	1240 nM	53.5 ± 0.3 µM	4.2 ± 0.8 h	2.1 ± 0.3 h	1.16 ± 0.47 ×10⁻⁶ cm/s	12.3 ± 0.6 h	6.1 ± 1.56 nM	IC50 (HD-MB03 cells; 7 days incubation): > 4000 nM; depletion of BRD2 protein (BRD2): > 90%; t1/2 mLM ([4]; microsomes): 0.13 ± 0.01 h; plasma stability t1/2 (Plasma stability): 3.27 ± 0.25 h; degradation of IMiD neosubstrates IKZF1 and CK1α (IKZF1 and CK1α): Neither of the two PROTACs degraded classical IMiD neosubstrates
						1410 nM	COc1ccc([C@H]2CCC(=O)NC2=O)cc1 [(R)-2b]								chiral inversion ([8]; HD-MB03 cell media): 21%; chiral inversion ([8]; MV4–11 cell media): 10%
						> 25000 nM	COc1ccc([C@@H]2CCC(=O)NC2=O)cc1 [(S)-2b]								chiral inversion ([8]; HD-MB03 cell media): 24%; chiral inversion ([8]; MV4–11 cell media): 13%
							Cc1sc2c(c1C)C(c1ccc(Cl)cc1)=N[C@@H](CC(=O)OC(C)(C)C)c1nnc(C)n1-2 [JQ1]	265 ± 62.6 nM						83 ± 10.3 nM	

SMILES	half-life [2]	half-life [3]	Papp (Caco-2 cell permeability)	half-life ([4]; liver microsomes)	half-life ([5]; liver microsomes)	half-life [6]	IC50 (CRBN)	IC50 (HD-MB03 cells; [9])	Sol. (aqueous solubility) (Aqueous solubility)	t1/2 MV4–11 cell media ([2]; 37°C)	t1/2 HD-MB03 cell media [3]	CaCo2 Papp [7]	t1/2 PBS [6]	IC50 (MV4–11 cells)	other results
COc1ccc(C2CCC(=O)NC2=O)cc1 (centres unmarked) [2b]							3150 nM and 3160 nM		89.0 ± 1.8 µM	>24 h	19.7 ± 0.1 h	81.8 ± 25.14 ×10⁻⁶ cm/s	>48 h		t1/2 hLM ([5]; microsomes): >24 h; LE (ligand efficiency) (CRBN): 0.48
